Key:
[1] = test system: early life stage zebrafish (Danio rerio) embryos; test: Developmental toxicity morphology screen, sealed rotating vial exposure; type: in vivo; set-up: bmd, MO24 / bmd, MORT / bmd, ANY_ / bmd, AXIS / bmd, CRAN / bmd, EDEM / bmd, LTRK / bmd, MUSC / bmdL, ANY_ / bmdU, ANY_ / bmdL, AXIS / bmdU, AXIS / bmdL, CRAN / bmdU, CRAN / bmdL, EDEM / bmdU, EDEM / bmdL, LTRK / bmdU, LTRK / bmdL, MO24 / bmdU, MO24 / bmdL, MORT / bmdU, MORT: unit not given here; details: for BMC50 Any effect: Fig. 2 heatmap, exposure 6-24 hpf in vials, summary of all endpoints; for any effect BMD50: SI-T5; for estimated percent Any effect: at 20 μM, 120 hpf, estimated from fitted concentration-response curves
How it was run: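 Bleached 6 hpf embryos, eight per sealed glass vial in 2 mL EM, were dosed from a 200x DMSO stock and rotated end-over-end overnight at 28 °C, then moved to chemical-free EM at 24 hpf (32 embryos per treatment). Blinded binary scoring at 120 hpf was pooled as "Any effect". BMC50 is on nominal concentrations.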

[2] = Body burden measurement (GC-MS/MS) and concentration uptake ratio, vial exposure; type: in vivo, Danio rerio; details: zebrafish (Danio rerio), whole embryos (32 pooled, ethyl acetate extract), other: waterborne exposure of embryos in sealed vials, 20 μM exposure, 32 pooled embryos, 0.5 mL extract, single replicates, read-out: measured concentration in embryo extract
Experimental: Body burden was measured for exposure to five chemicals at two timepoints: 24 and 48 hpf. […] The exposure concentration was chosen as it was the maximum possible concentration that ensured enough viable animals for collection at 48 hpf and allowed direct comparison of chemical uptake at the same exposure concentration.
Chemicals were exposed at 20 μM following the exposure procedure detailed in section 1.3, 24 vials per chemical. At 24 hpf, embryos were pooled in groups of 32 embryos (combining embryos from 4 vials) into 1.5 mL polypropylene RINO-safe lock tubes (n = 3 per chemical treatment, n = 3 per control). Tubes were briefly placed on ice to reduce embryo movement (<1 min); the remaining medium was removed; the tube was then flash frozen in liquid nitrogen and stored at −20 °C until extraction. Embryos in the remaining vials were plated as previously described in section 1.3 until collection at 48 hpf following the same procedure as 24 hpf collections (n = 3 per chemical treatment, n = 1 control).
Tissue extraction was performed as previously reported ([Rude et al., 2025]). Each sample was spiked with 25 μL internal standard in ethyl acetate and 100 μL of 1 mm glass beads (Next Advance, Troy, NY United States) were added to the RINO-safe lock tubes containing thawed tissue samples and left on ice for 10 min 250 mg of Na2SO4 and 200 μL of ethyl acetate were added to each tube and vortexed. Tubes were homogenized at speed 8 for 6 min in a Bullet Blender (Next Advance, Troy, NY, United States). 300 μL of ethyl acetate was added to each tube and the homogenization step was repeated until no pieces of non-homogenized fish tissue remained. Samples were then centrifuged for 10 min at 4 °C, 1600g. Sample supernatant (0.5 mL) was collected into amber vials and stored at 4 °C until chemical analysis.
Samples were analyzed for quantitation and identification of 161 PAHs. The method was performed with an Agilent 7890 gas chromatograph (GC), with a 7000C triple quadrupole mass spectrometer (MS/MS) using an Agilent J&W PAH select (30 m × 250 μm × 0.15 μm GC column). Calibration for each analyte utilized at least a 4-point (range: 4–7, median 6 points, n = 161) curve with R^2 ≥ 0.99. Specific instrument conditions were modified from [Anderson et al. (2015)] and are detailed in Table S3. GC–MS/MS data was analyzed using MassHunter Quantitative Analysis v.B.06.00 SP1 build 6.0.388.1 software (Agilent Corp. Wilmington,DE) ([Anderson et al., 2015]). Dynamic muti-reaction monitoring mode was used during analyses, and all PAHs were identified using analytical standards obtained from multiple sources (Table S1). Collison energies were optimized for each individual unsubstituted PAH, alkylation series (C1, C2, etc.), and when possible, specific alkylation group (i.e. methyl, ethyl, etc.).
Body burden concentrations based on average embryo wet weight at each timepoint were determined by the equation below. Total measured chemical was calculated from ng/mL concentrations times sample volume (0.5 mL). Bodyburdennmol/mgbw=total measured chemicalnmol/number of fish32×average body weightmg
Average body weights at 24 hpf and 48 hpf were assumed to be 0.31 mg and 0.26 mg, respectively as determined previously ([Rericha et al., 2024]). Statistical analysis to compare time points within chemicals was performed using a two-sided Student’s t-test (p-value ≤ 0.05). An ANOVA with a follow-up Dunn’s test was used to compare body burden between chemicals at 24 hpf (p-value ≤ 0.05). Body burden concentrations at 24 hpf were compared to the estimated percent effect of each measured chemical at the exposure concentration used for body burden analysis (20 μM). These estimates were made using the fitted concentration-response curves previously described in section 2.3.2.2.
Concentration uptake ratios between vial exposures and 96-well plate exposures were compared using a two-sided Student’s t-test, p-values ≤ 0.05 were considered significant. […]

[3] = benchmark dose, morphology endpoint ANY_ (any effect)
[4] = benchmark dose, morphology endpoint AXIS
[5] = benchmark dose, morphology endpoint CRAN

Structure (SMILES): Cc1cccc2c(C)cccc12 [1,5-dimethylnaphthalene]
- BMC50 AXIS (curved or bent body axis at 120 hpf) ([1]; Fig. 2, nominal concentration): 47.6 µM
- BMC50 CRAN (craniofacial malformation at 120 hpf) ([1]; Fig. 2, nominal concentration): 48.3 µM
- BMC50 EDEM (pericardial and/or yolk sac edema at 120 hpf) ([1]; Fig. 2, nominal concentration): 47.8 µM
- BMC50 MO24 (mortality at 24 hpf) ([1]; Fig. 2, nominal concentration): no MO24 BMC50
- BMC50 Any effect ([1]; nominal concentration): 36.9 µM
- any effect BMD50 [1]: 36.95 µM
- estimated percent Any effect [1]: 13%
- bmd, ANY_ [1, 3]: 36.9476
- bmd, AXIS [1, 4]: 47.5678
- bmd, CRAN [1, 5]: 48.2521
- bmd, EDEM ([1]; benchmark dose, morphology endpoint EDEM): 47.802
- concentration at 24 hpf, 20 μM [2]: 29200 ng/mL
- concentration at 48 hpf, 20 μM [2]: 9160 ng/mL

Structure (SMILES): Cc1ccc2cccc(C)c2c1 [1,7-dimethylnaphthalene]
- BMC50 AXIS (curved or bent body axis at 120 hpf) ([1]; Fig. 2, nominal concentration): 23.9 µM
- BMC50 LTRK (lower trunk and/or caudal fin at 120 hpf) ([1]; Fig. 2, nominal concentration): 30 µM
- BMC50 MORT (mortality at 120 hpf) ([1]; Fig. 2, nominal concentration): not associated with mortality
- BMC50 MUSC (muscular/cardiovascular at 120 hpf) ([1]; Fig. 2, nominal concentration): 45.7 µM
- BMC50 Any effect ([1]; nominal concentration): 20.1 µM
- any effect BMD50 [1]: 20.09 µM
- estimated percent Any effect [1]: 52%
- bmd, ANY_ [1, 3]: 20.0865
- bmd, AXIS [1, 4]: 23.9279
- bmd, LTRK ([1]; benchmark dose, morphology endpoint LTRK): 29.9891
- bmd, MUSC ([1]; benchmark dose, morphology endpoint MUSC): 45.7133
- concentration at 24 hpf, 20 μM [2]: 34600 ng/mL
- concentration at 48 hpf, 20 μM [2]: 11300 ng/mL

Structure (SMILES): Cc1cc(C)c2c(C)cccc2c1 [2,4,5-trimethylnaphthalene]
- BMC50 AXIS (curved or bent body axis at 120 hpf) ([1]; Fig. 2, nominal concentration): 24.2 µM
- BMC50 CRAN (craniofacial malformation at 120 hpf) ([1]; Fig. 2, nominal concentration): 24.8 µM
- BMC50 MO24 (mortality at 24 hpf) ([1]; Fig. 2, nominal concentration): 25.7 µM
- BMC50 MORT (mortality at 120 hpf) ([1]; Fig. 2, nominal concentration): 24.2 µM
- BMC50 Any effect ([1]; nominal concentration): 22 µM
- any effect BMD50 [1]: 22.04 µM
- bmd, MO24 ([1]; benchmark dose, endpoint MO24): 25.7458
- bmd, MORT ([1]; benchmark dose, endpoint MORT): 24.2071
- bmd, ANY_ [1, 3]: 22.0373
- bmd, AXIS [1, 4]: 24.1954
- bmd, CRAN [1, 5]: 24.8219
- concentration at 24 hpf, 20 μM [2]: 9620 ng/mL

Structure (SMILES): Cc1ccc2ccc(C)cc2c1 [2,7-dimethylnaphthalene]
- estimated percent Any effect [1]: 12%
- concentration at 24 hpf, 20 μM [2]: 26500 ng/mL
- concentration at 48 hpf, 20 μM [2]: 8890 ng/mL

Structure (SMILES): CCc1ccc2ccccc2c1 [2-ethylnaphthalene]
- BMC50 AXIS (curved or bent body axis at 120 hpf) ([1]; Fig. 2, nominal concentration): 44.9 µM
- BMC50 CRAN (craniofacial malformation at 120 hpf) ([1]; Fig. 2, nominal concentration): 45.7 µM
- BMC50 EDEM (pericardial and/or yolk sac edema at 120 hpf) ([1]; Fig. 2, nominal concentration): 42.3 µM
- BMC50 LTRK (lower trunk and/or caudal fin at 120 hpf) ([1]; Fig. 2, nominal concentration): 49.8 µM
- BMC50 MO24 (mortality at 24 hpf) ([1]; Fig. 2, nominal concentration): 47.1 µM
- BMC50 MORT (mortality at 120 hpf) ([1]; Fig. 2, nominal concentration): 44.6 µM
- BMC50 Any effect ([1]; nominal concentration): 35.2 µM
- any effect BMD50 [1]: 35.16 µM
- bmd, MO24 ([1]; endpoint MO24, benchmark dose): 47.121
- bmdL, MO24 ([1]; endpoint MO24, lower limit of benchmark dose): 45.5775
- bmdU, MO24 ([1]; endpoint MO24, upper limit of benchmark dose): 48.8332
- bmd, MORT ([1]; endpoint MORT, benchmark dose): 44.5979
- bmdL, MORT ([1]; endpoint MORT, lower limit of benchmark dose): 42.8494
- bmdU, MORT ([1]; endpoint MORT, upper limit of benchmark dose): 46.3328
- bmd, ANY_ ([1]; morphology endpoint ANY_, benchmark dose): 35.1578
- bmdL, ANY_ ([1]; morphology endpoint ANY_, lower limit of benchmark dose): 33.394
- bmdU, ANY_ ([1]; morphology endpoint ANY_, upper limit of benchmark dose): 36.9258
- bmd, AXIS ([1]; morphology endpoint AXIS, benchmark dose): 44.9036
- bmdL, AXIS ([1]; morphology endpoint AXIS, lower limit of benchmark dose): 41.901
- bmdU, AXIS ([1]; morphology endpoint AXIS, upper limit of benchmark dose): 49.465
- bmd, CRAN ([1]; morphology endpoint CRAN, benchmark dose): 45.7058
- bmdL, CRAN ([1]; morphology endpoint CRAN, lower limit of benchmark dose): 42.7078
- bmdU, CRAN ([1]; morphology endpoint CRAN, upper limit of benchmark dose): 50.351
- bmd, EDEM ([1]; morphology endpoint EDEM, benchmark dose): 42.2958
- bmdL, EDEM ([1]; morphology endpoint EDEM, lower limit of benchmark dose): 39.552
- bmdU, EDEM ([1]; morphology endpoint EDEM, upper limit of benchmark dose): 46.0615
- bmd, LTRK ([1]; morphology endpoint LTRK, benchmark dose): 49.8262
- bmdL, LTRK ([1]; morphology endpoint LTRK, lower limit of benchmark dose): 46.6984
- bmdU, LTRK ([1]; morphology endpoint LTRK, upper limit of benchmark dose): 55.8128

From publication PMC12560828, “Chemical structure drives developmental toxicity of alkyl-substituted naphthalenes in zebrafish” (Environment international, 2025)
